According to patent US20250214986A1, “P2X3 INHIBITOR COMPOUND, SALT THEREOF, POLYMORPH THEREOF AND USE THEREOF” (HUMANWELL HEATHCARE (GROUP) CO., LTD., priority 2022, published 2025):
Structures can show the parent of a compound that is named as a salt.

Key:
Assay type in all cases: physicochemical
[1] = Hygroscopicity by dynamic vapor sorption (DVS); details: for crystalline form after DVS test: 0% RH to 95% RH to 0% RH; for vapor sorption / hygroscopicity: 25° C./80% RH; for hygroscopicity: DVS
Procedure: Dynamic vapor sorption (DVS) curves were acquired on a DVS IntrInsic from Surface Measurement Systems (SMS). The relative humidity at 25° C. was corrected with the deliquescence points of LiCl, Mg(NO3)2, and KCl.
Starting at 0% RH, the test acquired the percentage changes in mass of the samples when the humidity changed (0% RH to 95% RH to 0% RH) at a constant temperature of 25° C.

[2] = Solid state stability (XRPD and HPLC); details: for change of HPLC purity after placement under the corresponding conditions: 60° C. sealed 1 day, 25° C./60% RH and 40° C./75% RH uncovered 1 week/1 month
Procedure: In the test, the purity, dynamic solubility and stability were tested using an Agilent 1260 high-performance liquid chromatograph, the molar ratio of salt-forming ions was tested using ion chromatography, and the analytical conditions are shown in Tables A-4 and A-5 below. [table]

[3] = Dynamic solubility experiment at 37° C.
Procedure: In the test, the purity, dynamic solubility and stability were tested using an Agilent 1260 high-performance liquid chromatograph, the molar ratio of salt-forming ions was tested using ion chromatography, and the analytical conditions are shown in Tables A-4 and A-5 below.
Solids at a feeding concentration of 10 mg/mL (calculated based on free base) were rotationally mixed with corresponding vehicles at 37° C. […] After sampling at each time point, the samples were centrifuged (at 10000 rpm) and filtered (through a 0.45 μm PTFE filter head). The HPLC concentrations and pH values of the filtrates were determined.
100.2 mg of NaCl and 50.3 mg of Triton X-100 were weighed into a 50 mL volumetric flask and then completely dissolved by addition of purified water. 816 μL of 1 M hydrochloric acid was added, and the pH was adjusted to 1.8 with 1 M hydrochloric acid or 1 M NaOH solution. The mixed solution was brought to the volume by addition of purified water.
170.5 mg of anhydrous NaH2PO4, 22.2 mg of NaOH, and 310.9 mg of NaCl were weighed into a 50 mL volumetric flask and then completely dissolved by addition of purified water. The pH was adjusted to 6.5 with 1 M hydrochloric acid or 1 M NaOH solution. The mixed solution was brought to the volume by addition of purified water. Subsequently, 55.1 mg of SIF powder was weighed into a 25 mL volumetric flask and completely dissolved with the above solution, and the mixed solution was brought to the volume.
0.21 mL of glacial acetic acid, 101.6 mg of NaOH, and 295.4 mg of NaCl were added into a 25 mL volumetric flask and then completely dissolved by addition of about 20 mL of purified water. The pH was adjusted to 5.0 with 1 M hydrochloric acid or 1 M NaOH solution. The mixed solution was brought to the volume by addition of purified water, and then 280.8 mg of SIF powder was weighed into the flask and completely dissolved.

[4] = 25° C./60% RH/uncovered, 1 week
[5] = 40° C./75% RH/uncovered, 1 week

Cc1cnc(-c2cc(O[C@@H](C)[C@@H](C)O)cc(C(=O)N[C@H](C)c3cnc(C(F)(F)F)nc3)c2F)s1 [Crystalline form A of hydrochloride]
crystalline form after DVS test ([1]; 25° C.): remained unchanged
vapor sorption [1]: about 0.49%
hygroscopicity [1]: slight hygroscopicity
HPLC Purity (area %) [2, 4]: 99.57 area %
HPLC purity Relative to starting (%) [2, 4]: 99.98%
HPLC Purity (area %) [2, 5]: 99.58 area %
HPLC purity Relative to starting (%) [2, 5]: 99.99%
change of HPLC purity after placement under the corresponding conditions [2]: no significant change
HPLC Purity (area %) ([2]; 60° C./sealed, 1 day): 99.58 area %
HPLC purity Relative to starting (%) ([2]; 60° C./sealed, 1 day): 99.99%
HPLC Purity (area %) ([2]; Starting): 99.59 area %
Crystalline form change ([3]; FaSSIF, 1 h): Yes^a
S: solubility ([3]; FaSSIF, 1 h): 9 µg/mL
pH of filtrate ([3]; FaSSIF, 1 h): 5.2
Crystalline form change ([3]; FaSSIF, 4 h): Yes^a
S: solubility ([3]; FaSSIF, 4 h): 9 µg/mL
pH of filtrate ([3]; FaSSIF, 4 h): 5.2
Crystalline form change ([3]; FaSSIF, 24 h): Yes^a
S: solubility ([3]; FaSSIF, 24 h): 14 µg/mL
pH of filtrate ([3]; FaSSIF, 24 h): 5.2
Crystalline form change ([3]; FeSSIF, 1 h): Yes^a
S: solubility ([3]; FeSSIF, 1 h): 30 µg/mL
pH of filtrate ([3]; FeSSIF, 1 h): 4.9
Crystalline form change ([3]; FeSSIF, 4 h): Yes^a
S: solubility ([3]; FeSSIF, 4 h): 27 µg/mL
pH of filtrate ([3]; FeSSIF, 4 h): 4.9
Crystalline form change ([3]; FeSSIF, 24 h): Yes^a
S: solubility ([3]; FeSSIF, 24 h): 23 µg/mL
pH of filtrate ([3]; FeSSIF, 24 h): 4.9
Crystalline form change ([3]; H2O, 1 h): Yes^a
S: solubility ([3]; H2O, 1 h): 4 µg/mL
pH of filtrate ([3]; H2O, 1 h): 2.1
Crystalline form change ([3]; H2O, 4 h): Yes^a
S: solubility ([3]; H2O, 4 h): 3 µg/mL
pH of filtrate ([3]; H2O, 4 h): 2.1
Crystalline form change ([3]; H2O, 24 h): Yes^a
S: solubility ([3]; H2O, 24 h): 4 µg/mL
pH of filtrate ([3]; H2O, 24 h): 2.1
solubility at 24 h ([3]; SGF, 37 °C, pH 1.8, simulated gastric fluid, thermodynamic from solid, SGF, 24 h, read-out: S: solubility): 11 µg/mL
Crystalline form change ([3]; SGF, 1 h): Yes^a
S: solubility ([3]; SGF, 1 h): 14 µg/mL
pH of filtrate ([3]; SGF, 1 h): 1.6
Crystalline form change ([3]; SGF, 4 h): Yes^a
S: solubility ([3]; SGF, 4 h): 11 µg/mL
pH of filtrate ([3]; SGF, 4 h): 1.6
Crystalline form change ([3]; SGF, 24 h): Yes^a
pH of filtrate ([3]; SGF, 24 h): 1.6

Cc1cnc(-c2cc(O[C@@H](C)[C@@H](C)O)cc(C(=O)N[C@H](C)c3cnc(C(F)(F)F)nc3)c2F)s1 [Crystalline form A of maleate]
crystalline form after DVS test ([1]; 25° C.): remained unchanged
vapor sorption when the humidity was more than 80% RH ([1]; 25° C., more than 80% RH): rapid vapor sorption
vapor sorption [1]: about 0.41%
hygroscopicity [1]: slight hygroscopicity
HPLC Purity (area %) [2, 4]: 99.71 area %
HPLC purity Relative to starting (%) [2, 4]: 100.00%
HPLC Purity (area %) [2, 5]: 99.65 area %
HPLC purity Relative to starting (%) [2, 5]: 99.94%
change of HPLC purity after placement under the corresponding conditions [2]: no significant change
HPLC Purity (area %) ([2]; 60° C./sealed, 1 day): 99.60 area %
HPLC purity Relative to starting (%) ([2]; 60° C./sealed, 1 day): 99.89%
HPLC Purity (area %) ([2]; Starting): 99.71 area %
Crystalline form change ([3]; FaSSIF, 1 h): Yes^a
S: solubility ([3]; FaSSIF, 1 h): 6 µg/mL
pH of filtrate ([3]; FaSSIF, 1 h): 4.9
Crystalline form change ([3]; FaSSIF, 4 h): Yes^a
S: solubility ([3]; FaSSIF, 4 h): 7 µg/mL
pH of filtrate ([3]; FaSSIF, 4 h): 4.7
Crystalline form change ([3]; FaSSIF, 24 h): Yes^a
S: solubility ([3]; FaSSIF, 24 h): 7 µg/mL
pH of filtrate ([3]; FaSSIF, 24 h): 4.5
Crystalline form change ([3]; FeSSIF, 1 h): Yes^a
S: solubility ([3]; FeSSIF, 1 h): 20 µg/mL
pH of filtrate ([3]; FeSSIF, 1 h): 4.9
Crystalline form change ([3]; FeSSIF, 4 h): Yes^a
S: solubility ([3]; FeSSIF, 4 h): 20 µg/mL
pH of filtrate ([3]; FeSSIF, 4 h): 4.9
Crystalline form change ([3]; FeSSIF, 24 h): Yes^a
S: solubility ([3]; FeSSIF, 24 h): 21 µg/mL
pH of filtrate ([3]; FeSSIF, 24 h): 4.9
solubility in H2O compared with the other forms ([3]; H2O): highest solubility in H2O
Crystalline form change ([3]; H2O, 1 h): Yes^a
S: solubility ([3]; H2O, 1 h): 7 µg/mL
pH of filtrate ([3]; H2O, 1 h): 2.3
Crystalline form change ([3]; H2O, 4 h): Yes^a
S: solubility ([3]; H2O, 4 h): 7 µg/mL
pH of filtrate ([3]; H2O, 4 h): 2.3
Crystalline form change ([3]; H2O, 24 h): Yes^a
S: solubility ([3]; H2O, 24 h): 8 µg/mL
pH of filtrate ([3]; H2O, 24 h): 2.2
Crystalline form change ([3]; SGF, 1 h): Yes^a
S: solubility ([3]; SGF, 1 h): 10 µg/mL
pH of filtrate ([3]; SGF, 1 h): 1.7
Crystalline form change ([3]; SGF, 4 h): Yes^a
S: solubility ([3]; SGF, 4 h): 10 µg/mL
pH of filtrate ([3]; SGF, 4 h): 1.7
Crystalline form change ([3]; SGF, 24 h): Yes^a
S: solubility ([3]; SGF, 24 h): 9 µg/mL
pH of filtrate ([3]; SGF, 24 h): 1.7
